Source: patent US20160184201A1, “ANTIPERSPIRANT/DEODORANT COMPOSITIONS” (COLGATE-PALMOLIVE COMPANY, priority 2013, published 2016)

System: Staphyloccus haemolyticus
Assay: Antimicrobial activity: minimum inhibition concentration by two-fold serial dilution in a 96-well plate (optical density, confirmed by agar streak)
Assay type: cell-based
Settings: for bacterial growth in the first well of the 96-well plate: 1% L-Lactide solution
Procedure: 1. Formulate a 1% or 10000 ppm and 3% or 30000 ppm solution of the neat L-Lactide active tested by weight and vortex until homogeneous in a 50 mL centrifuge tube. 2. Place solutions in shaking incubator at 200 rpm and 37° C. for 1 hour. 3. Repeat the formulation of the solution and shaking incubation for 4 hour and 24 hour time points. 4. Label 96-well plate to indicate positive and negative controls and the active tested against an odor causing bacteria, Staphyloccus haemolyticus. 5. Using a 96-well plate, pipette 100 uL of Tryptic Soy Broth (TSB) into all of the wells. 6. In the first well, add 100 uL of the active solution or desired solvent for positive and negative controls to achieve a total of 200 uL in the first column of wells. 7. Set the multi-channel pipette to 100 uL and begin mixing the contents in the first column of wells and transfer 100 uL of the mixture into each successive well creating two-fold serial dilutions. 8. Repeat until the 12th column is reached making sure to dispose the 100 uL from the last well leaving 100 uL in all of the wells. 9. In the negative control wells add 100 uL of Phosphate Buffered Saline (PBS). Add 100 uL of bacteria (optical density equals to 0.1) to all other wells. 10. Incubate 96-well plate overnight at 37° C. or at room temperature for 48 hours. 11. Minimum inhibition concentration of the sample is determined by measuring the optical density of the 96 plate.

With `CC1OC(=O)C(C)OC1=O` [L-Lactide, 3,6-dimethyl-1,4-dioxane-2,5-dione] the “bacterial growth in the first well of the 96-well plate” value (1 hour of shaking incubation (200 rpm, 37° C.), first well, 4-fold dilution of the sample) was “some bacterial growth”, the “bacterial growth in the first well of the 96-well plate” value (4 hours of incubation, same first well, 4-fold dilution) was “complete bacteria kill” and the “bacterial growth in wells 1 and 2 of the 96-well plate” value (3% L-Lactide solution, 1 hour of shaking incubation, dilution factor 4 and 8 fold) was “no bacterial growth”. For the same compound, the “bacterial growth in the third well of the 96-well plate” value (3% L-Lactide solution, 24 hours of shaking incubation, third well, dilution 16 fold) was “bacteria growth is prevented”.
